Data on twelve compounds can be found in ChEMBL document CHEMBL1201862, “PubChem BioAssay data set” (2004).

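Briefly, cells in 96-well plates were exposed to five compound concentrations for 48 h, and endpoints were estimated by linear interpolation. Here, GI50 denotes the concentration required for 50% inhibition of growth.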 Activity calls are given as the source filed them. Cut-off read from the data, not from the text of the source: active = GI50 up to about 1.1 µM and inactive = higher.

Assay in all cases: NCI tumour cell line growth inhibition, 48 h
In experiment [1] the test system is SK-MEL-28.
Experiment [2] deals with OVCAR-3.
The test system of experiment [3] is SK-MEL-5.
For experiment [4], the system named is SN12C.
The test system of experiment [5] is CCRF-CEM.
Experiment [6] deals with Hs-578T.
The test system of experiment [7] is HOP-62.
Experiment [8] has as its system SF-295.
Experiment [9] concerns NCI-H460.
Experiment [10] has as its system Malme-3M.
For experiment [11], the system named is IGROV-1.
Experiment [12] relates to NCI/ADR-RES.
Experiment [13] relates to HCT-116.
The test system of experiment [14] is 786-0.
Experiment [15] deals with MDA-MB-231.
Experiment [16] concerns HOP-92.
The subject of experiment [17] is PC-3.
Experiment [18] deals with SK-MEL-2.

Turning to `CC1=C(N2CC2)C(=O)C(CO)=C(N2CC2)C1=O`, the GI50 was 0.0711 µM (active) in experiment [1]; 0.0203 µM (active) in experiment [2]; 0.0279 µM (active) in [3]; < 0.0102 µM (active) in experiment [4]; < 0.01 µM (active) in [5]; 0.234 µM (active) in [6]. The GI50 in [7] was 0.0144 µM (active); in experiment [8], 0.013 µM (active); in [9], < 0.01 µM (active); in [10], 0.0357 µM (active); in experiment [11], 0.0112 µM (active); in experiment [12] it was 0.0106 µM (active). The GI50 in experiment [13] was < 0.0291 µM (active); in [14], < 0.0321 µM (active); in [15], 0.173 µM (active).
`COC(=O)c1ccc(C)cc1C1CN=NC12Cc1cc(C)c(C)cc1C2=O` (stereo unspecified): the GI50 was 45.7 µM (inactive) in experiment [1]; 49.5 µM (inactive) in [2]; 14.9 µM (inactive) in experiment [3]; 42.4 µM (inactive) in experiment [4]; 31 µM (inactive) in experiment [5]; 34.2 µM (inactive) in experiment [16]. Also, the GI50 in experiment [6] is 46.5 µM (inactive); in experiment [7] it was > 100 µM (inactive); in experiment [8], 47.3 µM (inactive); in experiment [9], 37.7 µM (inactive); in experiment [10], 30.5 µM (inactive); in [11], > 100 µM (inactive). For the same compound, the GI50 in experiment [12] was 28.6 µM (inactive); in experiment [13], 24.2 µM (inactive); in [14] it was 54.7 µM (inactive); in [15] it was 27 µM (inactive).
`Cc1sc2c(c1C)C(=O)c1cccn1-2`: the GI50 in experiment [1] is > 100 µM (inactive); in experiment [2], > 100 µM (inactive); in [17], 65.3 µM (inactive); in experiment [3], > 100 µM (inactive); in [4], 78.2 µM (inactive); in [5] it was 56.1 µM (inactive). For the same compound, the GI50 was 37.7 µM (inactive) in experiment [6]; > 100 µM (inactive) in experiment [7]; > 100 µM (inactive) in experiment [8]; > 100 µM (inactive) in [9]; > 100 µM (inactive) in [10]; 64.7 µM (inactive) in experiment [11]. In addition, the GI50 was > 100 µM (inactive) in experiment [12]; 61.2 µM (inactive) in experiment [13]; 87.7 µM (inactive) in experiment [14]; 96.4 µM (inactive) in [15]; > 100 µM (inactive) in experiment [18].
For the compound `CC12CCC(C(=O)OC1=O)C2(C)C` (stereo unspecified), the GI50 in experiment [1], in experiment [2], in experiment [17], in experiment [4], in experiment [5] and in experiment [6] was > 100 µM (inactive) in each case. The GI50 in experiment [7], in [8], in experiment [9], in [10], in [11] and in [12] was > 100 µM (inactive) in each case. Also, the GI50 in experiment [13] was > 100 µM (inactive); in [14] it was > 100 µM (inactive); in experiment [15] it was > 100 µM (inactive); in [18], 28.7 µM (inactive).
In the case of `C=C1C(=O)C2(C)OC2(C)C1C(=O)O` (stereo unspecified), the GI50 in experiment [1], in experiment [2], in experiment [17], in [3], in experiment [4] and in [5] was > 100 µM (inactive) each time. The GI50 in experiment [16], in experiment [6], in experiment [7], in experiment [8], in [9] and in experiment [11] was > 100 µM (inactive) throughout. Further, the GI50 in [12], in [13], in [14], in experiment [15] and in experiment [18] was > 100 µM (inactive) in each case.
Turning to `O=C(C#CP(=O)(O)c1ccccc1)c1ccccc1`, the GI50 in experiment [1], in experiment [2], in experiment [17], in [3], in experiment [4] and in experiment [16] was > 100 µM (inactive) each time. Also, the GI50 in experiment [6], in [7], in experiment [8], in experiment [9], in experiment [10] and in experiment [11] was > 100 µM (inactive) each time. Besides, the GI50 in experiment [12], in experiment [13], in [14] and in experiment [18] was > 100 µM (inactive) in each case.
With `COC(=O)Cc1c(C2C(CC(=O)OC)c3ccccc3N2C2OC(CO)C(O)C(O)C2O)[nH]c2ccccc12` (stereo unspecified), the GI50 in experiment [1], in experiment [2], in [17], in experiment [3], in experiment [4] and in experiment [5] was > 100 µM (inactive) throughout. The GI50 in experiment [16], in [7], in experiment [8], in experiment [9], in experiment [10] and in [11] was > 100 µM (inactive) each time. The GI50 in [13], in experiment [15] and in experiment [18] was > 100 µM (inactive) throughout.
As for `Cc1c(/C=N/NC(=S)Nc2ccccc2)c(=O)n(-c2ccccc2)n1C`, the GI50 is > 100 µM (inactive) in [1]; > 100 µM (inactive) in experiment [17]; > 100 µM (inactive) in experiment [3]; 48 µM (inactive) in experiment [5]; > 100 µM (inactive) in experiment [16]; > 100 µM (inactive) in experiment [6]. The GI50 was > 100 µM (inactive) in [7]; > 100 µM (inactive) in [8]; > 100 µM (inactive) in experiment [9]; > 100 µM (inactive) in [11]; 22.1 µM (inactive) in experiment [12]; > 100 µM (inactive) in [13]. Further, the GI50 in experiment [14], in [15] and in [18] was > 100 µM (inactive) throughout.
For the compound `O=c1[nH]c(=O)n(COCc2ccccc2)cc1Nc1ccc(Br)cc1`, the GI50 in experiment [1], in [2], in [17], in [3], in experiment [4] and in experiment [5] was > 100 µM (inactive) in each case. For the same compound, the GI50 in experiment [16] is > 100 µM (inactive); in experiment [6], > 100 µM (inactive); in experiment [7], 17.1 µM (inactive); in experiment [8] it was 44.5 µM (inactive); in experiment [9], > 100 µM (inactive); in experiment [11], 0.51 µM (active). In addition, the GI50 in experiment [12], in experiment [13] and in experiment [14] was > 100 µM (inactive) throughout.
In the case of `Nc1c(C(=O)c2ccccc2)[nH]c(NCc2ccccc2)c1C(=S)Nc1ccccc1`, the GI50 in experiment [1], in experiment [2], in experiment [3], in [4], in experiment [5] and in experiment [16] was > 100 µM (inactive) in each case. Moreover, the GI50 in experiment [6], in experiment [7], in experiment [8], in experiment [9], in [10] and in [11] was > 100 µM (inactive) in each case. Further, the GI50 in experiment [12], in experiment [13], in experiment [14], in experiment [15] and in [18] was > 100 µM (inactive) each time.
As to `CC(=O)NNC(=S)N/C=C1/C(=O)Oc2ccccc2C1=O`, the GI50 in experiment [1], in [2], in experiment [17], in experiment [3], in [4] and in [5] was > 100 µM (inactive) throughout. In addition, the GI50 in experiment [6], in [7], in [8], in experiment [9], in experiment [10] and in experiment [11] was > 100 µM (inactive) in each case. For the same compound, the GI50 in [12], in experiment [13], in experiment [14], in experiment [15] and in experiment [18] was > 100 µM (inactive) each time.
`CC1(C)OC[C@@H](O)[C@H](C#N)CO1`: the GI50 in experiment [1], in experiment [2], in [17], in experiment [3], in [4] and in experiment [5] was > 100 µM (inactive) throughout. Also, the GI50 in experiment [6], in experiment [7], in [8], in experiment [9], in experiment [10] and in [13] was > 100 µM (inactive) in each case. Besides, the GI50 in [14], in experiment [15] and in experiment [18] was > 100 µM (inactive) in each case.
